{
  "source": "paper PMC9329436",
  "about": "“Optimization of the 4-anilinoquin(az)oline scaffold as epidermal growth factor receptor (EGFR) inhibitors for chordoma utilizing a toxicology profiling assay platform” (Scientific Reports, 2022)",
  "format_in_all_cases": "biochemical",
  "key": {"[1]": {"molecular_target": "T1, 320 wild-type protein kinases (Homo sapiens, UniProt O43781)", "T1 sequence (O43781 1-588)": "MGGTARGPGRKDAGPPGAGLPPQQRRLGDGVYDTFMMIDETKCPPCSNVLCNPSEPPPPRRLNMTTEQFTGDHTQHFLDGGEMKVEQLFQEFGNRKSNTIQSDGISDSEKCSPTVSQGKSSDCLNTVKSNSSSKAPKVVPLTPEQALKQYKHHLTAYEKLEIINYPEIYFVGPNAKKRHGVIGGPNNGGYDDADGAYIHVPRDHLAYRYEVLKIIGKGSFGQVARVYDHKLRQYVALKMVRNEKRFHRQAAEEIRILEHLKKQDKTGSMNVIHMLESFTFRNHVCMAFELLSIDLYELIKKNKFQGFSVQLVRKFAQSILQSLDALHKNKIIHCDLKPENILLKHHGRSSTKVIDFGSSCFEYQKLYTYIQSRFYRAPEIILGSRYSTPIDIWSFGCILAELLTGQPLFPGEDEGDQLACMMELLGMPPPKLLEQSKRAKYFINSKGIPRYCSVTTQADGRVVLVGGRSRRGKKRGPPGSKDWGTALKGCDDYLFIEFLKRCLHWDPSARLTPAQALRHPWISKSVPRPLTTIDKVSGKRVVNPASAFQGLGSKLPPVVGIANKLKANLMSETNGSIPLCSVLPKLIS", "conditions": "singlicate", "from_the_text": "(§1) Table S4. Profiling of two compounds at two concentrations against 320 wild-type protein kinases; singlicate measurement; Residual activities (% of control)."}, "[2]": {"molecular_target": "T2, 320 wild-type protein kinases (Homo sapiens, UniProt P42681)", "T2 sequence (P42681 1-527)": "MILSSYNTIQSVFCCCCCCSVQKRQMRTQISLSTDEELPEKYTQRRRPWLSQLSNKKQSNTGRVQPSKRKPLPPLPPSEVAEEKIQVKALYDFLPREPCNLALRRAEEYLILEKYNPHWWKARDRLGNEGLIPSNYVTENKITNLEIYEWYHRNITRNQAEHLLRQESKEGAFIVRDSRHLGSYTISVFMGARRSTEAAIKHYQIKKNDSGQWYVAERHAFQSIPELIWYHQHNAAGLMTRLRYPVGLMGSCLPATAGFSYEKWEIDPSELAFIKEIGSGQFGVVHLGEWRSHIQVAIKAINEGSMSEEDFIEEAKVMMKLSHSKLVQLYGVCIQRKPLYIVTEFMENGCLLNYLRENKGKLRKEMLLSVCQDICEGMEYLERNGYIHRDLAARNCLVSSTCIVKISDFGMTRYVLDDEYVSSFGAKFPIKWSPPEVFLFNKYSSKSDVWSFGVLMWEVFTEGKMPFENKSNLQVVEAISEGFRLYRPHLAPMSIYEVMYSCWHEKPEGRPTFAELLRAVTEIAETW", "conditions": "kinase TXK, singlicate", "from_the_text": "as §1"}, "[3]": {"molecular_target": "320 wild-type protein kinases (Homo sapiens, UniProt P53350)", "sequence (P53350 whole entry)": "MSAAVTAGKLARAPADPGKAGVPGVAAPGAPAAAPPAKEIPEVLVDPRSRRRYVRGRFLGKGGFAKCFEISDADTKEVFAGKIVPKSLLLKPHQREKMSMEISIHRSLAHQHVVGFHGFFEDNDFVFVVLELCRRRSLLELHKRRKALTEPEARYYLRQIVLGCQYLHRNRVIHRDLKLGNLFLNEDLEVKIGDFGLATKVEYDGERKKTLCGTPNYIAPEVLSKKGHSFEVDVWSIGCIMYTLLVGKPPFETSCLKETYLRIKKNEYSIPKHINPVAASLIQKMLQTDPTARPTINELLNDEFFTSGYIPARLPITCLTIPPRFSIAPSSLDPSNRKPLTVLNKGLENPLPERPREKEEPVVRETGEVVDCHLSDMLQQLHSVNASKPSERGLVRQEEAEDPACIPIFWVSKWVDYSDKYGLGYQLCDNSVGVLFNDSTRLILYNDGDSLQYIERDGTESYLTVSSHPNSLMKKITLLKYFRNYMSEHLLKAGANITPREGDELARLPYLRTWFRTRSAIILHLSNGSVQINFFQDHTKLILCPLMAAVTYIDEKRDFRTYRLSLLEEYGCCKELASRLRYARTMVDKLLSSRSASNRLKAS", "conditions": "singlicate", "from_the_text": "as §1"}, "[4]": {"molecular_target": "320 wild-type protein kinases (Homo sapiens, UniProt P53355)", "sequence (P53355 whole entry)": "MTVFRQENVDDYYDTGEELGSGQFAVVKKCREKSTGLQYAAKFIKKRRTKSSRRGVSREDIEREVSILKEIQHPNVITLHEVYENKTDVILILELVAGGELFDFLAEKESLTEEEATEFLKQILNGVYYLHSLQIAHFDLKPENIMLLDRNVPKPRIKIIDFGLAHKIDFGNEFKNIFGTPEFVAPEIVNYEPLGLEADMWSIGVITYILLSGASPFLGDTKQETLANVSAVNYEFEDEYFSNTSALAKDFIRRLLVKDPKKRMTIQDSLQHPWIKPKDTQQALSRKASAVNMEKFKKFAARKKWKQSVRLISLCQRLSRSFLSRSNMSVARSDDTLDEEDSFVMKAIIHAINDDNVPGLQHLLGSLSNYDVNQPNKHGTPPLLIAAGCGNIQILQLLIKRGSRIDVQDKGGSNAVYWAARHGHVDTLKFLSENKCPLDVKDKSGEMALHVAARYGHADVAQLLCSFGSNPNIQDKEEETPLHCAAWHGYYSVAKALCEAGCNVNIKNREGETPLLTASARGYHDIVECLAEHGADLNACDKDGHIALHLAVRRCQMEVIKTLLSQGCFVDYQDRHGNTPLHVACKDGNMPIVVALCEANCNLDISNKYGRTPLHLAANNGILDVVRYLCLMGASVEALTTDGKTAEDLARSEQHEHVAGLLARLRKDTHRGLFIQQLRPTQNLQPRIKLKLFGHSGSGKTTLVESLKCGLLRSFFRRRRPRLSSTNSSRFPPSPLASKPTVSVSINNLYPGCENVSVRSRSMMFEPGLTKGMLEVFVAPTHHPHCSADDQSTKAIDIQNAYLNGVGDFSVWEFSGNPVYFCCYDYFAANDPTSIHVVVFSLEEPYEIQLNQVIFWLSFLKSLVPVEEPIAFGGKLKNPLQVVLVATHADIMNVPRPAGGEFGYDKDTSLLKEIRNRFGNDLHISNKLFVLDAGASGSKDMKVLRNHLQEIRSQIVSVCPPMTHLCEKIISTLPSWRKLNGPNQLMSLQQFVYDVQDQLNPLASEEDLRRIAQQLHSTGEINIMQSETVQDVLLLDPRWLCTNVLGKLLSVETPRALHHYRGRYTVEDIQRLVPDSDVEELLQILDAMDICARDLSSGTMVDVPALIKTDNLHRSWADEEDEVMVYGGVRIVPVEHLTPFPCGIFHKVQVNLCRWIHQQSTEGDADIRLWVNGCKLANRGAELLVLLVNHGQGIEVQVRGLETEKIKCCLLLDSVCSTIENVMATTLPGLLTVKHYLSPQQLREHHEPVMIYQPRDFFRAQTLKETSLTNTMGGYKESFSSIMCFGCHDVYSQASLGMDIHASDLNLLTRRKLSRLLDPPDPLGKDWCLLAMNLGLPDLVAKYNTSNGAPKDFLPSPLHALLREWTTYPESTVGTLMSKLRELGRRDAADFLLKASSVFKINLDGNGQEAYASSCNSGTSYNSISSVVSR", "conditions": "singlicate", "from_the_text": "as §1"}, "[5]": {"molecular_target": "320 wild-type protein kinases (Homo sapiens, UniProt P53671)", "sequence (P53671 whole entry)": "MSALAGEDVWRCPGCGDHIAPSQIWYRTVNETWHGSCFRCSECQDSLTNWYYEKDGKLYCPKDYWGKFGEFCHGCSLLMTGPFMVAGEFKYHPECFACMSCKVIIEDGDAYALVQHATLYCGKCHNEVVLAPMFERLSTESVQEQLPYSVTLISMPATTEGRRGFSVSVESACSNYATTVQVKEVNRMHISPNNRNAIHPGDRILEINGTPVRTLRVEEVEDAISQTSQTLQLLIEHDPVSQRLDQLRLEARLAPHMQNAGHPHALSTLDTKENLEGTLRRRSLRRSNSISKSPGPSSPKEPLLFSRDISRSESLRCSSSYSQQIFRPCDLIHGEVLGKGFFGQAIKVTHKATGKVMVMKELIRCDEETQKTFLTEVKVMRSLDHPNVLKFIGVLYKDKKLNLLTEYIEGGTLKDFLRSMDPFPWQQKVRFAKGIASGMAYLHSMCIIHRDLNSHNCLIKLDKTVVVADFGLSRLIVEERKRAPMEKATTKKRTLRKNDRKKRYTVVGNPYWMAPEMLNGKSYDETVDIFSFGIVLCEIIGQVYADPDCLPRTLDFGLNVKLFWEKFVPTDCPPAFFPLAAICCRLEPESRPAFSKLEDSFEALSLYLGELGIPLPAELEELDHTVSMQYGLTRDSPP", "conditions": "singlicate", "from_the_text": "as §1"}, "[6]": {"molecular_target": "T3, 320 wild-type protein kinases (Homo sapiens, UniProt Q08881)", "T3 sequence (Q08881 1-620)": "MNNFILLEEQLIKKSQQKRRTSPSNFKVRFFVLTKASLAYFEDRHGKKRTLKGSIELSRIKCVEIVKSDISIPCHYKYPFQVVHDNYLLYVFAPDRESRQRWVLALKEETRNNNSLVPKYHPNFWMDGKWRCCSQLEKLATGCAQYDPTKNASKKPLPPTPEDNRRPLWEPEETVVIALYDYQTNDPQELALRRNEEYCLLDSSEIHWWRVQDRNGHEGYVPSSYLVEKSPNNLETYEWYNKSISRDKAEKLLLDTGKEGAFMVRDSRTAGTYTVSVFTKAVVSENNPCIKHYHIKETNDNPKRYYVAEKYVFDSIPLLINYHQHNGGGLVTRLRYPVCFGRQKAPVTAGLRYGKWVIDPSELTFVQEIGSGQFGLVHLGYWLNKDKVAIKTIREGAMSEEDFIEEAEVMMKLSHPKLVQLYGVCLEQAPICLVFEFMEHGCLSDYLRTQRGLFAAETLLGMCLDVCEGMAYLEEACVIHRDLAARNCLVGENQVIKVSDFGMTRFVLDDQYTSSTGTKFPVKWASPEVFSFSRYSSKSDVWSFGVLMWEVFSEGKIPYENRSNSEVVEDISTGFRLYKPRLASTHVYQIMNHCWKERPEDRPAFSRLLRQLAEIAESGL", "conditions": "ITK, singlicate", "from_the_text": "as §1"}},
  "note": "Like-named read-outs stand apart in the source and are kept apart here.",
  "data": [
    {"smiles": "C#Cc1cc(Nc2ncnc3cc(I)ccc23)ccc1Cl", "note": "[Compound 41]", "values": [
      {"measurement": "Residual activity", "setting": "[1]; DYRK3, 1.0E-06 M", "value": "81 % of control"},
      {"measurement": "Residual activity", "setting": "[1]; DYRK3, 1.0E-07 M", "value": "96 % of control"},
      {"measurement": "Residual activity, TXK", "setting": "[2]; assay conc. 1.0E-06 M", "value": "79 % of control"},
      {"measurement": "Residual activity, TXK", "setting": "[2]; assay conc. 1.0E-07 M", "value": "90 % of control"},
      {"measurement": "Residual activity", "setting": "[3]; PLK1, 1.0E-06 M", "value": "98 % of control"},
      {"measurement": "Residual activity", "setting": "[3]; PLK1, 1.0E-07 M", "value": "98 % of control"},
      {"measurement": "Residual activity", "setting": "[4]; DAPK1, 1.0E-06 M", "value": "112 % of control"},
      {"measurement": "Residual activity", "setting": "[4]; DAPK1, 1.0E-07 M", "value": "125 % of control"},
      {"measurement": "Residual activity", "setting": "[5]; LIMK2, 1.0E-06 M", "value": "100 % of control"},
      {"measurement": "Residual activity", "setting": "[5]; LIMK2, 1.0E-07 M", "value": "92 % of control"},
      {"measurement": "Residual activity", "setting": "[6]; 1.0E-06 M", "value": "107 % of control"},
      {"measurement": "Residual activity", "setting": "[6]; 1.0E-07 M", "value": "99 % of control"}
    ]},
    {"smiles": "C#Cc1cc(Nc2ncnc3cc(OC)c(OC)cc23)ccc1Cl", "note": "[Compound 45]", "values": [
      {"measurement": "Residual activity", "setting": "[1]; DYRK3, 1.0E-06 M", "value": "69 % of control"},
      {"measurement": "Residual activity", "setting": "[1]; DYRK3, 1.0E-07 M", "value": "97 % of control"},
      {"measurement": "Residual activity, TXK", "setting": "[2]; assay conc. 1.0E-06 M", "value": "52 % of control"},
      {"measurement": "Residual activity, TXK", "setting": "[2]; assay conc. 1.0E-07 M", "value": "91 % of control"},
      {"measurement": "Residual activity", "setting": "[3]; PLK1, 1.0E-06 M", "value": "77 % of control"},
      {"measurement": "Residual activity", "setting": "[3]; PLK1, 1.0E-07 M", "value": "91 % of control"},
      {"measurement": "Residual activity", "setting": "[4]; DAPK1, 1.0E-06 M", "value": "116 % of control"},
      {"measurement": "Residual activity", "setting": "[4]; DAPK1, 1.0E-07 M", "value": "126 % of control"},
      {"measurement": "Residual activity", "setting": "[5]; LIMK2, 1.0E-06 M", "value": "89 % of control"},
      {"measurement": "Residual activity", "setting": "[5]; LIMK2, 1.0E-07 M", "value": "94 % of control"},
      {"measurement": "Residual activity", "setting": "[6]; 1.0E-06 M", "value": "99 % of control"},
      {"measurement": "Residual activity", "setting": "[6]; 1.0E-07 M", "value": "88 % of control"}
    ]}
  ]
}
